From patent US20210069157A1, “AGENT FOR TREATMENT OF PBC” (Kowa Company, Ltd, priority 2016, published 2021)

Columns and labels:
[1] = system: patients with dyslipidemia showing a high level of triglyceride (TG); assay: Pooled clinical trial data (8 tests, 12 weeks or more): effects on ALP and total bilirubin; type: in vivo, human; set-up: ALP level, Rate of change (LSmean) / total bilirubin level, Rate of change (LSmean): unit not given here; conditions: for ALP level, Rate of change (LSmean) / total bilirubin level, Rate of change (LSmean): 12 weeks vs baseline; for ALP level, Rate of change (LSmean): placebo 0.5; for total bilirubin level, Rate of change (LSmean): placebo 6.1
Experimental: Compound. A was administered at a dose of 0.05 to 0.4 mg per day to Compound A group. […] Note that comparisons between the groups were investigated by using covariance analysis with baseline levels used as covariates.

[2] = system: patients with dyslipidemia showing a high level of TG being treated with ursodeoxycholic acid; assay: Pooled clinical trial data, subset being treated with ursodeoxycholic acid: effects on ALP and total bilirubin; type: in vivo, human
Experimental: Data of patients being treated with ursodeoxycholic acid (15 cases in total) were extracted from the data obtained in a clinical trial (8 tests with an administration period of 12 weeks or more) of Compound A, which had been performed for patients with dyslipidemia showing a high level of TG, the effects of Compound A for the ALP and the total bilirubin were investigated. Compound A was administered at a dose of 0.05 to 0.4 mg per day to Compound A group. Further, placebo was administered to a control group. Each compound was administered to Compound A group and a control group for 12 weeks, and changes in the levels of ALP before and after the administration are shown in Table 3 and FIG. 3, and changes in the levels of total bilirubin before and after the administration are shown in Table 4 and FIG. 4. Note that comparisons between the groups were investigated by using covariance analysis with baseline levels used as covariates.

[3] = 0.05 to 0.4 mg per day, 12 weeks
[4] = patients being treated with ursodeoxycholic acid, 12 weeks

SMILES: CC[C@@H](Oc1cccc(CN(CCCOc2ccc(OC)cc2)c2nc3ccccc3o2)c1)C(=O)O [Compound A, (R)-2-[3-[[N-(benzoxazol-2-yl)-N-3-(4-methoxyphenoxy)propyl]aminomethyl]phenoxy] butyric acid]
- effect on level of ALP as compared with placebo [1, 3]: decreases dose-dependently
- effect on level of total bilirubin as compared with placebo [1, 3]: decreases dose-dependently
- ALP level, Rate of change (LSmean) ([1]; Compound A 0.05 mg/day): −13.4
- total bilirubin level, Rate of change (LSmean) ([1]; Compound A 0.05 mg/day): −16.4
- total bilirubin level, 12 Weeks ([1]; Compound A 0.05 mg/day, 12 weeks, n 37, baseline 0.8): 0.6 mg/dL
- ALP level, 12 Weeks ([1]; Compound A 0.05 mg/day, 12 weeks, n 37, baseline 234.4): 201.5 IU/L
- ALP level, Rate of change (LSmean) ([1]; Compound A 0.1 mg/day): −22.1
- total bilirubin level, Rate of change (LSmean) ([1]; Compound A 0.1 mg/day): −7.7
- total bilirubin level, 12 Weeks ([1]; Compound A 0.1 mg/day, 12 weeks, n 127, baseline 0.8): 0.7 mg/dL
- ALP level, 12 Weeks ([1]; Compound A 0.1 mg/day, 12 weeks, n 127, baseline 228.4): 177.4 IU/L
- ALP level, Rate of change (LSmean) ([1]; Compound A 0.2 mg/day): −29.4
- total bilirubin level, Rate of change (LSmean) ([1]; Compound A 0.2 mg/day): −11.9
- total bilirubin level, 12 Weeks ([1]; Compound A 0.2 mg/day, 12 weeks, n 846, baseline 0.8): 0.7 mg/dL
- ALP level, 12 Weeks ([1]; Compound A 0.2 mg/day, 12 weeks, n 846, baseline 235.6): 164.7 IU/L
- ALP level, Rate of change (LSmean) ([1]; Compound A 0.4 mg/day): −35.3
- total bilirubin level, Rate of change (LSmean) ([1]; Compound A 0.4 mg/day): −10.4
- total bilirubin level, 12 Weeks ([1]; Compound A 0.4 mg/day, 12 weeks, n 319, baseline 0.8): 0.6 mg/dL
- ALP level, 12 Weeks ([1]; Compound A 0.4 mg/day, 12 weeks, n 319, baseline 225.1): 145.0 IU/L
- effect on level of ALP compared with fenofibrate 200 mg per day ([1]; Compound A at a dose of 0.1 mg or more, 12 weeks): decreases the level of ALP more strongly than the fenofibrate at the maximum clinical dose
- total bilirubin level, Rate of change (LSmean) ([2]; Compound A 0.05 to 0.4 mg per day, 12 weeks vs baseline, patients on UDCA, placebo 41.2): −18.5
- ALP level, Rate of change (LSmean) ([2]; Compound A 0.05 to 0.4 mg per day, 12 weeks vs baseline, patients on UDCA, placebo −1.1): −22.6
- total bilirubin level, 12 Weeks ([2]; Compound A 0.05 to 0.4 mg per day, 12 weeks, patients on UDCA, n 13, baseline 0.7): 0.6 mg/dL
- ALP level, 12 Weeks ([2]; Compound A 0.05 to 0.4 mg per day, 12 weeks, patients on UDCA, n 13, baseline 295.5): 229.5 IU/L
- effect on level of ALP [2, 4]: decreases
- effect on level of total bilirubin [2, 4]: decreases
